Results from patent publication US20230414607A1, “METHODS OF TREATMENT” (BOW RIVER LLC, priority 2017, published 2023).
Several values for one entry are separate records, joined by “and”; a condition that tells them apart may be missing. Identical values can stand only once. Like-named read-outs stand apart in the source and are kept apart here.

Key:
CYP3A4 [1] = molecular target: T1, CYP3A4 (Homo sapiens, UniProt P08684); conditions: for predicted lurasidone AUC levels (reported as GMR) greater than baseline: human
Source text: Blood plasma levels may be described in various ways, such as area under the plasma concentration curve (AUC) and peak plasma concentration (Cmax). Baseline levels and posaconazole interaction levels for CYP3A4 substrate drugs may be compared using the geometric mean ratio (GMR) of AUC and Cmax. […] GMR is the standard industry and regulatory method for assessing the ratio of change of a pharmacokinetic variable (such as AUC) relative to its own baseline value (e.g., in a patient that was not treated with posaconazole). Once the level of substrate drug (AUC or Cmax) during co-administration with posaconazole and a CYP3A4 substrate drug is known, a function can be derived using conventional pharmacological methods to estimate how the AUC or plasma level of the CYP3A4 substrate drug is expected to decay over time after stopping administration of posaconazole. Such a function can be used to provide a plot of the decay GMR of AUC (or Cmax) of the CYP3A4 substrate drug versus time due to its interaction with posaconazole, based on the stated half-life of posaconazole.
The expected DDI decay curve can also be calculated for Cmax GMR by substituting Cmax during co-administration for AUC during co-administration in equation 1. As used herein, “expected levels” and “predicted levels” and the like, refer to the AUC or Cmax GMR values calculated using equation 1.

CYP3A4 [2] = molecular target: T1, CYP3A4; conditions: in vivo
Source text: The reduced dose of the CYP3A4 substrate drug may be administered with posaconazole, the day after stopping posaconazole, or two or more days (e.g., as described herein) after stopping posaconazole.
To mitigate this risk, in some embodiments the administration of the CYP3A4 substrate drug is contraindicated not just for co-administration with posaconazole, but the administration is also contraindicated for a period of time (e.g., 2 or more days) after stopping posaconazole beyond the label-prescribed delay of one day (i.e., contraindication for co-administration of the CYP3A4 substrate drug and posaconazole). In some embodiments, the present methods provide for administering the CYP3A4 substrate drug as soon as it is safe to do so, e.g., for time periods exceeding about 1 day, as described herein. […] This accounts for the need to treat the patient with the CYP3A4 substrate drug with no more delay (after stopping posaconazole) than is necessary, so that the risks of leaving such a patient untreated are minimized as much as possible.

[3] = Example 1: pharmacokinetic study with posaconazole and lurasidone in obese subjects; assay type: in vivo, human
Procedure: Inventors studied 6 obese male and female subjects (ages 18-50, BMI>35) taking Posaconazole oral tablets (300 mg qd) and Lurasidone (20 mg qd). Body weights and BMI measurements for the 6 subjects are provided below in Table 1.
Subjects were dosed with Lurasidone alone on Day 1, then subsequently dosed to steady-state Posaconazole levels, with a loading dose of 300 mg twice a day on Day 2 and 300 mg once a day thereafter over a period of 14 days. Posaconazole administration was then stopped and Lurasidone (20 mg qd) administered 2, 4, and 6 days after administration had ceased (studies days 17, 19, and 21 respectively).

CYP3A = experiment: Example 2: lurasidone pharmacokinetics during and after posaconazole (drug-drug interaction); assay type: in vivo; conditions: human; for half-life: plasma, oral, read-out: Lurasidone elimination half-life, arithmetic mean ± S.E. (converted)
[4] = cited from earlier work
[5] = cited from earlier work; remark: listed apart in the source
CYP3A4 [6] = molecular target: T1, CYP3A4; conditions: in vivo; cited from earlier work
[7] = 2 days after stopping posaconazole

T1 sequence (P08684 whole entry): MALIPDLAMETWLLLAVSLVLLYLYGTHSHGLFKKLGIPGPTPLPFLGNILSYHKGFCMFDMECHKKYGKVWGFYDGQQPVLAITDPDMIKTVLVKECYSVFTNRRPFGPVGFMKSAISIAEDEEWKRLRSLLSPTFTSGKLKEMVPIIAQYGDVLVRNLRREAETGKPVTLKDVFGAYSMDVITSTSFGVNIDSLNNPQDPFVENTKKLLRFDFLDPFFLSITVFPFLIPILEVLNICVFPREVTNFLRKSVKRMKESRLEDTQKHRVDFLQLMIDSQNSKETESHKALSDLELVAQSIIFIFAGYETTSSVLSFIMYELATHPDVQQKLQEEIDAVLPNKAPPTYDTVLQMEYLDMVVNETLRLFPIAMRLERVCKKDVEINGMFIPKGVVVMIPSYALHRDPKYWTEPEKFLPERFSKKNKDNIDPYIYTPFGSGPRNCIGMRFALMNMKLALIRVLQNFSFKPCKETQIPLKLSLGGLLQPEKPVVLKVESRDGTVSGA

O=C1[C@@H]2[C@H]3CC[C@H](C3)[C@@H]2C(=O)N1C[C@@H]1CCCC[C@H]1CN1CCN(c2nsc3ccccc23)CC1 [lurasidone]
day after stopping posaconazole on which predicted AUC reaches baseline (CYP3A4 [1]): ~9 days
predicted lurasidone AUC levels (reported as GMR) greater than baseline (CYP3A4 [1]; 1 day after stopping posaconazole): about 400%
predicted lurasidone AUC levels (reported as GMR) greater than baseline (CYP3A4 [1]; [7]): about 300%
actual AUC levels, fold greater than expected (CYP3A4 [2]; [7]): about 2 fold
actual AUC levels, fold greater than expected (CYP3A4 [2]; 3 days after stopping posaconazole): 2-3 fold
actual AUC levels, fold greater than expected (CYP3A4 [2]; 4 days after stopping posaconazole): 2.5-3.5 fold
Lurasidone AUC Ratio relative to Day 1 ([3]; Day 17, 2 days after Posaconazole was stopped, individual obese subjects): 2.98 and 1.78
AUC ([3]; both sexes, human, in vivo, 20 mg, Day 17, 2 days after Posaconazole was stopped, individual obese subjects): 196 ng·h/mL
post-Posaconazole treatment mean AUC ratio values for Lurasidone ([3]; both, human, in vivo): 3.6-4.3 ×
post-Posaconazole treatment mean AUC ratios of Lurasidone, times higher than the baseline ([3]; both, human, in vivo): about 3 times
Corrected Cmax, arithmetic mean ± standard error (CYP3A; in vivo, 20 mg): 19.8 ± 4 ng/mL
Cmax (CYP3A; in vivo, 20 mg, Corrected Cmax, arithmetic mean ± standard error): 17.1 ± 1.6 ng/mL
half-life (CYP3A; 20 mg, Normal, Day 1 (baseline)): 9.4 h
half-life (CYP3A; 20 mg, Normal, Day 20 (posaconazole given Days 4-17)): 39 ± 3 h
half-life (CYP3A; 20 mg, Normal, Day 23 (posaconazole given Days 4-17)): 48 ± 5 h
half-life (CYP3A; 20 mg, Normal, Day 26 (posaconazole given Days 4-17)): 50 ± 7 h
half-life (CYP3A; 20 mg, Normal, Day 30 (posaconazole given Days 4-17)): 45 ± 9 h
half-life (CYP3A; 20 mg, Obese, Day 1 (baseline)): 10.9 h
half-life (CYP3A; 20 mg, Obese, Day 20 (posaconazole given Days 4-17)): 48 ± 4 h
half-life (CYP3A; 20 mg, Obese, Day 23 (posaconazole given Days 4-17)): 52 ± 3 h
half-life (CYP3A; 20 mg, Obese, Day 26 (posaconazole given Days 4-17)): 61 ± 4 h
half-life (CYP3A; 20 mg, Obese, Day 30 (posaconazole given Days 4-17)): 71 ± 5 h
half-life (CYP3A; Normal, Day 14 (with posaconazole)): 37 ± 4 h
half-life (CYP3A; Obese, Day 14 (with posaconazole)): 38 ± 2 h
increase in the AUC of lurasidone associated with somnolence ([4]; about 3 fold increase in GMR): about 300%
increase in AUC of lurasidone associated with akathisia ([4]; about 4 fold increase in GMR): 400%
normal baseline AUC: mean AUC0-tau ([5]; 120 mg lurasidone in the fed state after a 350 kcal meal): about 743 ng*h/mL
normal baseline Cmax: mean Cmax ([5]; 120 mg lurasidone in the fed state following a 350 kcal meal): about 160 ng/mL

COc1cc2c(cc1O)CCN[C@]21CS[C@@H]2c3c(OC(C)=O)c(C)c4c(c3[C@H](COC1=O)N1[C@@H]2[C@H]2c3c(cc(C)c(OC)c3O)C[C@@H]([C@@H]1O)N2C)OCO4 [trabectedin]
AUC co-administration levels, Fold change (CYP3A4 [6]): 1.66 fold
AUC co-administration levels, Percent of baseline (CYP3A4 [6]): 166%
Cmax co-administration levels, Fold change (CYP3A4 [6]): 1.22 fold
Cmax co-administration levels, Percent of baseline (CYP3A4 [6]): 122%
Baseline AUC (% CV) ([5]; AUCinf one dose (24 hr infusion) at 600 ug/m^2): 12 (±4.8) ng*h/mL
Baseline AUC (% CV) ([5]; AUCinf one dose (24 hr infusion) at 900 ug/m^2): 36 (±16) ng*h/mL
Baseline AUC (% CV) ([5]; AUCinf one dose (24 hr infusion) at 1200 ug/m^2): 32 (±13) ng*h/mL
Baseline AUC (% CV) ([5]; AUCinf one dose (24 hr infusion) at 1500 ug/m^2): 55 (±25) ng*h/mL
Baseline Cmax (% CV) ([5]; One dose (24 hr infusion) at 1500 ug/m^2): 1.8 (±1.1) ng/ml
